The record followed here is patent US8598177B2, “Imidazopyridazines as PAR1 inhibitors, production thereof, and use as medicaments” (Sanofi, priority 2008, dated 2013).

Where a name gives a salt, the structure may show the parent alone.

The assay has as its target T1, PAR1 (Homo sapiens, UniProt P25116).
T1 construct: endogenous in cells; host or cells: washed platelets prepared from platelet-rich plasma of healthy volunteer donors
T1 sequence (P25116 22-425): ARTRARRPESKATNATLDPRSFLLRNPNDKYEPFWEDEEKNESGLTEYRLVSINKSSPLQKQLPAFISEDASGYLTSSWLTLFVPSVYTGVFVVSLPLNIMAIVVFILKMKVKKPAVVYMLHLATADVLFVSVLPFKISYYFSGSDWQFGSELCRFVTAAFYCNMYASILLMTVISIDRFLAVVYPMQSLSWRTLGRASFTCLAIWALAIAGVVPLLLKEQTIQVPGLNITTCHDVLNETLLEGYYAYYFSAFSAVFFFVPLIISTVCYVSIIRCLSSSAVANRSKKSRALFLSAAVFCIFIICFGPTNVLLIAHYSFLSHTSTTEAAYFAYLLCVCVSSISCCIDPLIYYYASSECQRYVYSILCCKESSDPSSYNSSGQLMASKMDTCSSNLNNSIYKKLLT
The experiment in a line: Inhibition of PAR1-mediated platelet aggregation induced by TRAP. The assay is classed as cell-based. The conditions noted are these: washed platelets from healthy volunteer donors, TRAP (70-100 μM solution) as agonist, 96-well format, AUC at 650 nm, 37° C., 20 minutes. As for the experimental part:
PAR1 Determination Method: Inhibition of PAR1-Mediated Platelet Aggregation
The pharmacological testing of the substances took place in platelet aggregation induced by TRAP (thrombin receptor-activating peptide) in 96-well format. For this purpose, blood was taken from healthy volunteer donors in 20 ml syringes containing 2 ml of 3.13% sodium citrate solution. After centrifugation at 150×g for 20 minutes, the platelet-rich plasma (PRP) was separated off and mixed with 1 μl of PGE1 solution (500 μg/ml in ethanol)/ml of PRP. Incubation at room temperature for 5 minutes was followed by centrifugation at 120×g for 15 minutes to remove the leukocytes. The leukocyte-free PRP was transferred in 5 ml portions into 15 ml PP tubes and centrifuged at 360×g for 15 minutes in order to pellet the platelets. The plasma was then decanted off and the platelet sediment from 5 ml of PRP was resuspended in 1 ml of Tyrode's (120 mM NaCl, 2.6 mM KCl, 12 mM NaHCO3, 0.39 mM NaH2PO4×H2O, 10 mM HEPES, 0.35% BSA, 5.5 mM glucose, pH 7.4) and adjusted with Tyrode's to a platelet count of 3×10^5/microliter (4). 13 ml of this cell suspension were then mixed with 866 μL of 10 mM CaCl2 solution, and 120 μL thereof were pipetted into each well of a 96-well plate containing 15 μL of the substance to be tested. After incubation at room temperature in the dark for 30 minutes, 15 μL of a TRAP solution (70-100 μM) were added as agonist, and kinetics were recorded at 650 nm in a SpectraMax 340 at 37° C. for 20 minutes while shaking. The areas under the curves of negative control (Tyrode's/DMSO) and positive control (15 μl of agonist/DMSO) were calculated and the difference was fixed as the 100% value. The substances to be tested were pipetted as serial dilutions in duplicate determination, the AUC was likewise determined for each substance concentration, and the % inhibition of the AUC compared with the control was calculated. On the basis of the % inhibition, the IC50 was calculated by nonlinear regression analysis according to the 4-parameter equation.
Compound `CCOc1cc2cn(CC(=O)c3cc(NC(C)=O)cc(S(F)(F)(F)(F)F)c3)c(=N)n2nc1OCC` [Example 1, trifluoroacetic acid salt] displayed a concentration for half-maximal inhibition (IC50) of 5 nM.

As to `CCOc1cc2cn(CC(=O)c3cc(N4CCOCC4)c(OC)c(C(C)(C)C)c3)c(=N)n2nc1OCC` [Example 3, 1-(3-tert-Butyl-4-methoxy-5-morpholin-4-ylphenyl)-2-(2,3-diethoxy-7-iminoimidazo-[1,5-b]pyridazin-6-yl)ethanone as trifluoroacetic acid salt], the IC50 worked out at 4 nM.

As to `COc1nn2c(=N)n(CC(=O)c3cc(N4CCOCC4)c(OC)c(C(C)(C)C)c3)cc2cc1OCC(F)(F)F` [Example 4, 1-(3-tert-Butyl-4-methoxy-5-morpholin-4-ylphenyl)-2-[7-imino-2-methoxy-3-(2,2,2-trifluoroethoxy)imidazo[1,5-b]pyridazin-6-yl]ethanone as trifluoroacetic acid salt], the IC50 was 180 nM.

Usually IC50 stands for the concentration at which inhibition is half-maximal.
